Literature values, collected in PMC9540525 (Cancer, 2022).

Legend:
[1] = phase 1 dose-escalation study in R/R SCLC; cited from earlier work
[2] = phase 1 dose-escalation study in R/R SCLC; cited from earlier work; remark: listed apart in the source
[3] = first-in-human study; cited from earlier work

| SMILES | pharmacokinetic properties [1] | rate of AEs [2] | toxicities [3] |
| --- | --- | --- | --- |
| O=C(O)c1ccc(CN2CCC(CN[C@@H]3C[C@H]3c3ccccc3)CC2)cc1 [GSK2879552] | favorable pharmacokinetic properties were demonstrated | the rate of AEs, especially serious AEs, was high | – |
| N[C@H]1CC[C@H](N[C@@H]2C[C@H]2c2ccccc2)CC1 [iadademstat] | – | – | caused toxicities, including thrombocytopenia, anemia, and febrile neutropenia, as well as deaths possibly related to iadademstat |
